Experimental findings from ChEMBL document CHEMBL3763030, “Structure-Activity Relationship of Azaindole-Based Glucokinase Activators” (J Med Chem, 2016) are described below.

Structures are written as SMILES.

A short description of this data set: Stability in C57BL/6J mouse microsomes. It counts as ADME, Microsome.
`C[S+]([O-])c1ccc(C(CC2CCCC2)c2cc3cccnc3[nH]2)cc1Cl` (stereo in doubt; 16c) registered a Stability of 40%.
`C[S+]([O-])c1ccc(C(CC2CCCC2)c2cc3cccnc3[nH]2)cc1Cl` (stereo in doubt; 16a) yielded a Stability of 50%.
For `CS(=O)(=O)c1ccc([C@@H](C[C@H]2CCC(=O)C2)C(=O)Nc2cnccn2)cc1Cl` [PIRAGLIATIN], the Stability was found to be 85%.
